# “Also recorded” adds a separate entry of the source.
# Tests used:
# [1] = test system: T47D parental and CDK6-overexpressing cells; test: Cell proliferation assay; format: cell-based, human; settings: recorded at day 3, day 5 and day 7
# Protocol: Cell viability was measured by Resazurin (R&D Systems, Minneapolis, MN, USA) as described previously (51). Briefly, 1,500 cells were seeded in a 96-well plate and allowed to recover overnight. Cells were treated with drugs at day 0. Resazurin was added to the cells 4 hours prior to the measurements on day 3, day 5 and day 7. Fluorescent intensity was measured using a microplate reader (SpectraMax M5, Molecular Devices, Sunnyvale, CA, USA). IC50 was calculated by GraphPad Prism 7.0 using a sigmoidal regression model.
# CDK4 = biological target: T1, CDK4 (Homo sapiens, UniProt P11802); test: Immunoblotting of CDK4 degradation in cells; format: cell-based
# T1 construct: CDK4 and CDK6 were immunoprecipitated from isogenic drug sensitive (MCF7 parental cells with low CDK6); endogenous in cells; host or cells: MCF-7 parental and MCF-7 FAT1 CRISPR knockout (CDK6-high) cells
# Protocol: (§1) Cell lysates were collected in RIPA buffer (Thermo Fisher Scientific) supplemented with protease and phosphatase inhibitors (Pierce). Protein concentration was quantified by using the BCA kit (Fisher Scientific). […] of protein lysates were loaded onto 4-12% SDS-PAGE gels (Invitrogen) for electrophoresis and transferred onto nitrocellular membranes. Blots were blocked with Intercept™ (TBS) Blocking Buffer (LI-COR Bioscience #927-60001) and incubated with primary antibody at 4° C. overnight. Secondary antibodies conjugated with fluorescence (LI-COR Bioscience #926-68071 and #926-32210) were incubated for 1 h at room temperature and blots were scanned by Odyssey Clx Imaging System from LI-COR Bioscience.
# Pharmacokinetic study = format: in vivo, C57BL/6 male mice
# Protocol: Pharmacokinetic study. C57BL/6 male mice were dosed with BSJ-05-017 solution formulation (i.p., 5/95 DMSO/10% captisol, dose 25 mg/kg) and BSJ-03-096 solution formulation (p.o., 5/95 DMSO/10%, dose 10 mg/kg). Blood samples were collected at 0.08, 0.25, 0.5, 1, 2, 4, 6, 8 and 24 hr. The blood samples were collected from sets of three mice at each time point in microcentrifuge tubes containing K2EDTA as an anticoagulant. Plasma samples were separated by centrifugation and stored below −70° C. until bioanalysis. All samples were processed for analysis by precipitation using acetonitrile and analyzed with a partially validated LC/MS/MS method (LLOQ −1.22 ng/mL for IV and PO, LLOQ −5.02 ng/mL for IP). Pharmacokinetic parameters were calculated using the noncompartmental analysis tool of WinNonlin Enterprise software (Version 6.3).
# CDK6-high cells = test: Senescence Green flow cytometry assay; format: cell-based, human; settings: 8 days; BSJ-05-017 500 nM, abemaciclib 100 nM, palbociclib 500 nM
# Protocol: (§2) Senescence analysis. […] Cells were harvested using trypsin/EDTA, then stained with the CellEvent Senescence Green Flow Cytometry Assay Kit (Invitrogen) according to the manufacturer's instructions. Briefly, cells were fixed with 2% paraformaldehyde for 15 min at room temperature and stained with the CellEvent Senescence Green Probe for 2 hours at 37° C. without CO2. After incubation, cells were washed with PBS 3 times and resuspended in FACS buffer (PBS with 2% FBS) for analysis on BD Biosciences LSR Fortessa using a 488 nm laser and 530 nm/30 filter (BD Biosciences). Data analysis was performed with FCS Express 7 (De Novo Software).
# MCF-7 parental cells = test: Senescence Green staining and cell cycle analysis; format: cell-based, human; settings: 500 nM; senescence 8 days, cell cycle 24 h
# Protocol: as §2
# Cell cycle analysis. […] Cells were detached from the cell culture dish with trypsin/EDTA, then washed with PBS and fixed in 70% ice-cold EtOH overnight. Prior to staining, EtOH was removed, and cells were washed twice with FACS buffer. Cells were then resuspended in staining buffer containing 1000 μl FACS buffer with 2 μg/ml propidium iodide (Invitrogen) and 100 μg/ml RNase A (Invitrogen). Cell cycle profiles were measured with BD Biosciences LSR Fortessa and analyzed with FCS Express 7.
# CDK6 = CDK6 (Homo sapiens, UniProt Q00534); test: Immunoblotting of CDK6 degradation in cells; format: cell-based; design: MCF7 cells that lost FAT1 expression and with high CDK6 expression; endogenous in cells; host or cells: MCF-7 FAT1 loss cells (also MCF-7 parental)
# Protocol: as §1
# [2] = FAT1 loss / CDK6-high CDK4/6i-resistant MCF7 cells, 24 h treatment
# [3] = MCF7 cells with overexpression of CDK6
# T1 sequence (P11802 whole entry): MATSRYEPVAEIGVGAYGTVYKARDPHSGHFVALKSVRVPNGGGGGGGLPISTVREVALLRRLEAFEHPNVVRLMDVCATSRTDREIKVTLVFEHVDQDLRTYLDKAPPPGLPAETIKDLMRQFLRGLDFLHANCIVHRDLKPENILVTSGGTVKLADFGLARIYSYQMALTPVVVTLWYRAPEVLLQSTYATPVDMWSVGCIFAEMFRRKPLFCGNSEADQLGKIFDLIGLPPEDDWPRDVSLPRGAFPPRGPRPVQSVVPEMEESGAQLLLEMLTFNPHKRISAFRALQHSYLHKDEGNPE
# T1 sequence (P24385 whole entry partner): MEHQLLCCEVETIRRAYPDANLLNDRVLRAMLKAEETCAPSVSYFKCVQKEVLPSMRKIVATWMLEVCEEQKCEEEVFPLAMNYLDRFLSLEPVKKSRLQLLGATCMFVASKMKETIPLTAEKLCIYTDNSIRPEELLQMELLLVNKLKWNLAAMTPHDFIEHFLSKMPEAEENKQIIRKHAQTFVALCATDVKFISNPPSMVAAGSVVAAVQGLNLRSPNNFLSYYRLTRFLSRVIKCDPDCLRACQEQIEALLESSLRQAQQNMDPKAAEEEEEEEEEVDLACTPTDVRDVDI
# CDK6, sequence (Q00534 whole entry): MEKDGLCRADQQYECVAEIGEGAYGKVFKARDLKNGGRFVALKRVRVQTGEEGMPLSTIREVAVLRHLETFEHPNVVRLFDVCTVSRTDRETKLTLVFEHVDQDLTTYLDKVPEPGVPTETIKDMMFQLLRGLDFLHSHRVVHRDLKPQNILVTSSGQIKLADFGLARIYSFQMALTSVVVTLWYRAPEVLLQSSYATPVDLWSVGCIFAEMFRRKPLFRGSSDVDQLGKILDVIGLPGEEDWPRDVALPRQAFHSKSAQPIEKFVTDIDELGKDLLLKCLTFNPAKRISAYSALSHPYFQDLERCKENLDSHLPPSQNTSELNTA
compound,measurement,setting,value
"CC(=O)c1c(C)c2cnc(Nc3ccc(N4CCN(CCCCC(=O)N[C@H](C(=O)N5C[C@H](O)C[C@H]5C(=O)N[C@@H](C)c5ccc(-c6scnc6C)cc5)C(C)(C)C)CC4)cn3)nc2n(C2CCCC2)c1=O [BSJ-05-017, (2S,4R)-1-((S)-2-(5-(4-(6-((6-acetyl-8-cyclopentyl-5-methyl-7-oxo-7,8-dihydropyrido[2,3-d]pyrimidin-2-yl)amino)pyridin-3-yl)piperazin-1-yl)pentanamido)-3,3-dimethylbutanoyl)-4-hydroxy-N—((S)-1-(4-(4-methylthiazol-5-yl)phenyl)ethyl)pyrrolidine-2-carboxamide]",inhibition of cell growth,[1],inhibits the growth of both T47D parental and CDK6-overexpressing cells
same,degradation of CDK4,CDK4; [2],most significant degradation of both CDK4 and CDK6; also recorded: high potency in degrading CDK4 and CDK6
same,degradation of CDK4,CDK4; [3],effectively degrade CDK4 and CDK6
same,Cmax,"Pharmacokinetic study; male, C57BL/6, mouse, plasma, ip, single dose 25 mg/kg i.p.",2600 nM
same,concentration at 24 h,"Pharmacokinetic study; male, C57BL/6, mouse, plasma, ip, single dose 25 mg/kg i.p., read-out: plasma concentration at 24h post dosing",~100 nM
same,metabolic stability,"Pharmacokinetic study; single dose in mice, i.p. or p.o.",good metabolic stability
same,senescence-marker positive cells,CDK6-high cells,significantly higher number of cells into senescence compared with abemaciclib or palbociclib
same,senescence and cell cycle arrest,MCF-7 parental cells,induces senescence and cell cycle arrest to a same extent as abemaciclib and palbociclib
same,degradation of CDK6,CDK6; [2],most significant degradation of both CDK4 and CDK6; also recorded: high potency in degrading CDK4 and CDK6
same,degradation of CDK6,CDK6; [3],effectively degrade CDK4 and CDK6

# From patent US20250144099A1, “INK4 TUMOR SUPPRESSOR PROTEINS MEDIATE RESISTANCE TO CDK4/6 KINASE INHIBITORS” (MEMORIAL SLOAN-KETTERING CANCER CENTER, priority 2021, published 2025)
